From ChEMBL document CHEMBL4699619, “Development of a Polo-like Kinase-1 Polo-Box Domain Inhibitor as a Tumor Growth Suppressor in Mice Models” (J Med Chem, 2020)
Active and inactive are the calls of the source. The calls are words filed in the database; no cut-off is given here. Non-standard residues stand in square brackets, D forms with d. Residues, ends and D or L forms follow the SMILES beside them. pT = C[C@@H](OP(=O)(O)O)[C@H](N)C(=O)O

Assays:
[1] = molecular target: T1, Serine/threonine-protein kinase PLK1 (Homo sapiens, UniProt P53350); test: Displacement of 5-carboxyfluorescein-labeled PBD-binding peptide from PLk1 PBD (unknown origin) expressed in bacterial expression system incubated for 10 mins by fluorescence polarization assay
[2] = molecular target: Serine/threonine-protein kinase PLK3 (Homo sapiens, UniProt Q9H4B4); test: Displacement of 5-carboxyfluorescein-labeled PBD-binding peptide from PLk3 PBD (unknown origin) expressed in bacterial expression system incubated for 10 mins by fluorescence polarization assay
[3] = species on record: Homo sapiens; test: Selectivity ratio for binding affinity for PLK2 PBD (unknown origin) to binding affinity for PLK1 PBD (unknown origin)
[4] = molecular target: T1, Serine/threonine-protein kinase PLK1; test: Inhibition PLK1 localization in mitotic kinetochore in human Hela cells at 200 uM after 18 hrs by immunofluorescence analysis relative to control; format: cell-based
[5] = tested on: HeLa; test: Induction of cell cycle arrest in human Hela cells assessed as number of cells at G0/G1 phase at 200 uM after 24 hrs by flow cytometry analysis (reference value: 74.14%); format: functional
[6] = tested on: HeLa; test: Induction of cell cycle arrest in human Hela cells assessed as number of cells at S phase at 200 uM after 24 hrs by flow cytometry analysis (reference value: 7.86%); format: functional
[7] = tested on: HeLa; test: Induction of cell cycle arrest in human Hela cells assessed as number of cells at G2/M phase at 200 uM after 24 hrs by flow cytometry analysis (reference value: 18%); format: functional
[8] = tested on: HeLa; test: Induction of apoptosis in human Hela cells assessed as dead cells at 200 uM after 24 hrs by fluorescence microscope analysis relative to control; format: functional
[9] = tested on: HeLa; test: Induction of apoptosis in human Hela cells assessed as dead cells at 200 uM after 48 hrs by fluorescence microscope analysis relative to control; format: functional
[10] = Drug uptake in human Hela cells using Cy5-conjugated compound at 200 uM after 18 hrs by fluorescence microscopic analysis; format: ADME, cell-based
[11] = Drug uptake in tumor of BALB/c nu/nu mouse xenografted with Hela cells using Cy5-conjugated compound at 5 mg/kg, iv measured after 48 hrs by fluorescence microscopic analysis; format: ADME, organism-based, Neoplasm; settings: in vivo
[12] = Ratio of drug uptake in BALB/c nu/nu mouse xenografted with Hela cells tumor to muscle using Cy5-conjugated compound at 5 mg/kg, iv measured after 48 hrs by fluorescence microscopic analysis; format: ADME, organism-based; settings: in vivo
[13] = Ratio of drug uptake in BALB/c nu/nu mouse xenografted with Hela cells tumor to muscle using Cy5-conjugated compound at 5 mg/kg, iv measured after 6 hrs by fluorescence microscopic analysis; format: ADME, organism-based; settings: in vivo
[14] = Ratio of drug uptake in BALB/c nu/nu mouse xenografted with Hela cells tumor to muscle using Cy5-conjugated compound at 5 mg/kg, iv measured after 24 hrs by fluorescence microscopic analysis; format: ADME, organism-based; settings: in vivo
[15] = Ratio of drug uptake in BALB/c nu/nu mouse xenografted with Hela cells tumor to muscle using Cy5-conjugated compound at 5 mg/kg, iv measured after 30 hrs by fluorescence microscopic analysis; format: ADME, organism-based; settings: in vivo
[16] = AUClast in ICR mouse at 5 mg/kg, iv measured upto 24 hrs by LC/MS/MS analysis; format: ADME, organism-based; set-up: route intravenous, dose 5 mg/kg, time <=24; settings: in vivo
[17] = AUC(infinity) in ICR mouse at 5 mg/kg, iv measured upto 24 hrs by LC/MS/MS analysis; format: ADME, organism-based; set-up: route intravenous, dose 5 mg/kg, time <=24; settings: in vivo
[18] = Half life in ICR mouse at 5 mg/kg, iv measured upto 24 hrs by LC/MS/MS analysis; format: ADME, organism-based; settings: in vivo
[19] = Clearance in ICR mouse at 5 mg/kg, iv measured upto 24 hrs by LC/MS/MS analysis; format: ADME, organism-based; settings: in vivo
[20] = Volume of distribution at steady state in ICR mouse at 5 mg/kg, iv measured upto 24 hrs by LC/MS/MS analysis; format: ADME, organism-based; settings: in vivo
[21] = Mean residence time in ICR mouse at 5 mg/kg, iv measured upto 24 hrs by LC/MS/MS analysis; format: ADME, organism-based; settings: in vivo
[22] = molecular target: T1, Serine/threonine-protein kinase PLK1; test: Inhibition of PLK1 PBD interaction with p-Cdc25c in human Hela cells assessed as decrease in phosphorylated Cdc25c co-preciptated with GST-PLK1 PBD by pull down assay; format: cell-based
[23] = tested on: HeLa; test: Antitumor activity against human Hela cells xenografted in Balb/c nu nu mouse assessed as decrease in tumor size at 5 mg/kg, iv for 29 days; format: functional, organism-based; settings: time 29.0 day
[24] = Toxicity in Balb/c nu nu mouse xenografted with human Hela cells assessed as changed in body weight at 5 mg/kg, iv for 29 days; format: organism-based; settings: in vivo, 696 h, time 29 day
[25] = Drug uptake in muscle of BALB/c nu/nu mouse xenografted with Hela cells using Cy5-conjugated compound at 5 mg/kg, iv measured after 48 hrs by fluorescence microscopic analysis; format: ADME, organism-based, Muscle tissue; settings: in vivo
[26] = tested on: HeLa; test: Induction of cell cycle arrest in human Hela cells assessed as number of cells at G0/G1 phase at 100 nM after 24 hrs by flow cytometry analysis (reference value: 74.14%); format: functional
[27] = tested on: HeLa; test: Induction of cell cycle arrest in human Hela cells assessed as number of cells at S phase at 100 nM after 24 hrs by flow cytometry analysis (reference value: 7.86%); format: functional
[28] = tested on: HeLa; test: Induction of cell cycle arrest in human Hela cells assessed as number of cells at G2/M phase at 100 nM after 24 hrs by flow cytometry analysis (reference value: 18%); format: functional
[29] = tested on: HeLa; test: Induction of apoptosis in human Hela cells assessed as dead cells at 100 nM after 24 hrs by fluorescence microscope analysis relative to control; format: functional
[30] = tested on: HeLa; test: Induction of apoptosis in human Hela cells assessed as dead cells at 100 nM after 48 hrs by fluorescence microscope analysis relative to control; format: functional

T1 sequence (P53350 whole entry): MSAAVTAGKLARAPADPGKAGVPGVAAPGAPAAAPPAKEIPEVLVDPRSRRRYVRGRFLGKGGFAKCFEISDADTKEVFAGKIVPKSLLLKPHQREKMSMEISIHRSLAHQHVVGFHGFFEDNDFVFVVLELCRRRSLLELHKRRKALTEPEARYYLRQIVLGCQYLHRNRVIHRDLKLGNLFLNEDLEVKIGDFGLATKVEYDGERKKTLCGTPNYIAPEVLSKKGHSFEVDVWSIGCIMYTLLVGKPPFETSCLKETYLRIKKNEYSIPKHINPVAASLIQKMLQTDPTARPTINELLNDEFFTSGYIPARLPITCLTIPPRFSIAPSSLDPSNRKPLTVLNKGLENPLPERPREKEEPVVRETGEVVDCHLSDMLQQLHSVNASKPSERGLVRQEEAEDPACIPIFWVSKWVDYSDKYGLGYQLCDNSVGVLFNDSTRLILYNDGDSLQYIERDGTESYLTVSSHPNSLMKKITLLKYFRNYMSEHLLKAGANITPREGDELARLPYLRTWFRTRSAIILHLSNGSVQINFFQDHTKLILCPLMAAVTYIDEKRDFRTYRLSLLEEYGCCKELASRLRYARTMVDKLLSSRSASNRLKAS
Serine/threonine-protein kinase PLK3, sequence (Q9H4B4 whole entry): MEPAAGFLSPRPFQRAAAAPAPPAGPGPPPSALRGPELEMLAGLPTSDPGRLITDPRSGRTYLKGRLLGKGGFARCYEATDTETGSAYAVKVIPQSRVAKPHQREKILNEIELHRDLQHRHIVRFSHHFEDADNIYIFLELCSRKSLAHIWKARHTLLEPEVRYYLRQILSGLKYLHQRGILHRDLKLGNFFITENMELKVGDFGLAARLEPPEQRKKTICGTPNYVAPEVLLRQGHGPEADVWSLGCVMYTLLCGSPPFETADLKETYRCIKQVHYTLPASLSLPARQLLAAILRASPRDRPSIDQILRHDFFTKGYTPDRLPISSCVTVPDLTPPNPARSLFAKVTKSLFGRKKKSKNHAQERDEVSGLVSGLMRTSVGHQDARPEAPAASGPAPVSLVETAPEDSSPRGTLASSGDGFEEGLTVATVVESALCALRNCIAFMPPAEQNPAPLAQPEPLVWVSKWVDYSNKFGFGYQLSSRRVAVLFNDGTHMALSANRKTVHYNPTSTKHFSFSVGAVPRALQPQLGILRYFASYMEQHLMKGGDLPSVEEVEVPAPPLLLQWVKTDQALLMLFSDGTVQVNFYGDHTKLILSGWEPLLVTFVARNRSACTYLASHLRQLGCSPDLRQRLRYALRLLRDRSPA

O=C1C(=Cc2cn(-c3ccccc3)nc2-c2ccccc2)C(=O)N(CCc2ccccc2)C(=O)N1CCc1ccccc1
inhibition [1]: inactive

O=C1NC(=O)C(=Cc2cn(CCCCc3ccccc3)nc2-c2ccccc2)C(=O)N1
inhibition [1]: Active

O=C1NC(=O)C(=Cc2cn(Cc3ccc(OC(F)(F)F)cc3)nc2-c2ccccc2)C(=O)N1
inhibition [1]: inactive

O=C1NC(=O)C(=Cc2cn(CCN3CCOCC3)nc2-c2ccccc2)C(=O)N1
IC50 [1]: 71 µM

CNc1ccc(C(=O)NCCn2cc(C=C3C(=O)NC(=O)NC3=O)c(-c3ccccc3)n2)cc1
IC50 [1]: 16.4 µM
inhibition (INH) [2]: Not Active
Ratio [3]: 2
inhibition [4]: 61%
Activity [5]: 54.47%
Activity [6]: 18.41%
Activity [7]: 27.12%
Activity [8]: 24.6%
Activity [9]: 71.1%
Drug uptake [10]: Active
Drug uptake [11]: Active
Ratio [12]: 4.2
Ratio [13]: 2.1
Ratio [14]: 3.9
Ratio [15]: 4.11
AUClast [16]: 11504.31 ng·h/mL
AUC [17]: 11535.29 ng·h/mL
t1/2 [18]: 7.73 h
CL [19]: 7.17 mL/min/kg
Vdss [20]: 0.31 L/kg
MRT [21]: 0.72 h
inhibition [22]: Active
Activity [23]: Active
Activity [24]: Non-Toxic
Drug uptake [25]: Active

O=C1NC(=O)C(=Cc2cn(CCNC(=O)C3CCCCC3)nc2-c2ccccc2)C(=O)N1
inhibition [1]: inactive

O=C1NC(=O)C(=Cc2cn(-c3ccccc3)nc2-c2ccccc2)C(=O)N1
IC50 [1]: 32.2 µM

CN1C(=O)C(=Cc2cn(-c3ccccc3)nc2-c2ccccc2)C(=O)N(C)C1=O
inhibition [1]: inactive

O=C1NC(=O)C(=Cc2cn(Cc3ccccc3)nc2-c2ccccc2)C(=O)N1
IC50 [1]: 52.7 µM

O=C1NC(=O)C(=Cc2cn(Cc3cccc(OC(F)(F)F)c3)nc2-c2ccccc2)C(=O)N1
inhibition [1]: inactive

CC[C@H](C)[C@H](NC(=O)[C@H](C)NC(=O)[C@@H](NC(=O)[C@H](CO)NC(=O)[C@H](Cc1cnc[nH]1)NC(=O)[C@H](CC(C)C)NC(=O)[C@@H]1CCCN1C(C)=O)[C@@H](C)OP(=O)(O)O)C(=O)N[C@@H](Cc1ccc(O)cc1)C(=O)N[C@@H](C)C(N)=O (Ac-PLHS[pT]AIYA-NH2)
IC50 [1]: 0.23 µM

CSc1ccc(Cn2cc(C=C3C(=O)NC(=O)NC3=O)c(-c3ccccc3)n2)cc1
inhibition [1]: inactive

O=C1NC(=O)C(=Cc2cn(CCNC(=O)c3ccccc3)nc2-c2ccccc2)C(=O)N1
inhibition [1]: inactive

CS(=O)(=O)c1ccc(C(=O)NCCn2cc(C=C3C(=O)NC(=O)NC3=O)c(-c3ccccc3)n2)cc1
inhibition [1]: inactive

CC[C@@H]1C(=O)N(C)c2cnc(Nc3ccc(C(=O)NC4CCN(C)CC4)cc3OC)nc2N1C1CCCC1 [BI-2536]
Activity [26]: 61.34%
Activity [27]: 9.9%
Activity [28]: 28.76%
Activity [29]: 31.1%
Activity [30]: 91.5%
Activity [23]: Active
Activity [24]: Non-Toxic

CCCN1C(=O)C(=Cc2cn(-c3ccccc3)nc2-c2ccccc2)C(=O)N(CCC)C1=O
inhibition [1]: inactive
